Several values for one entry are separate records, joined by “and”; a condition that tells them apart may be missing. Equal entries are not always repeated. Non-standard residues stand in square brackets, D forms with d. Residues, ends and D or L forms follow the SMILES beside them. *: point of attachment. sY = N[C@@H](Cc1ccc(OS(=O)(=O)O)cc1)C(=O)O; OCH2CH2Ph = c1ccc(CCO*)cc1; Nle = CCCC[C@H](N)C(=O)O
T1: CCK1R (Homo sapiens, UniProt P32238)
T1 sequence (P32238 1-428): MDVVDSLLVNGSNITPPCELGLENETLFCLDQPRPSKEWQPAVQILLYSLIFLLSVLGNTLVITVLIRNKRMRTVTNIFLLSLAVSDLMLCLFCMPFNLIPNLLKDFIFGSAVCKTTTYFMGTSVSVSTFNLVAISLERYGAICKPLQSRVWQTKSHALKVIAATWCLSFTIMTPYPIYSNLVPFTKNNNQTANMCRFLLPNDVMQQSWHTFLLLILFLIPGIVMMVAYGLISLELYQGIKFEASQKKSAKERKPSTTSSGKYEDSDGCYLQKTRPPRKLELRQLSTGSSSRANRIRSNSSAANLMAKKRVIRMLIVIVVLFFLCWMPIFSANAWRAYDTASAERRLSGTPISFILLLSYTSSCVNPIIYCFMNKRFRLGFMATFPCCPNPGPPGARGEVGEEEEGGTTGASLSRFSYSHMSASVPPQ

T2: type 1 cholecystokinin receptor (CCK1R) (UniProt P32238)
T2 sequence: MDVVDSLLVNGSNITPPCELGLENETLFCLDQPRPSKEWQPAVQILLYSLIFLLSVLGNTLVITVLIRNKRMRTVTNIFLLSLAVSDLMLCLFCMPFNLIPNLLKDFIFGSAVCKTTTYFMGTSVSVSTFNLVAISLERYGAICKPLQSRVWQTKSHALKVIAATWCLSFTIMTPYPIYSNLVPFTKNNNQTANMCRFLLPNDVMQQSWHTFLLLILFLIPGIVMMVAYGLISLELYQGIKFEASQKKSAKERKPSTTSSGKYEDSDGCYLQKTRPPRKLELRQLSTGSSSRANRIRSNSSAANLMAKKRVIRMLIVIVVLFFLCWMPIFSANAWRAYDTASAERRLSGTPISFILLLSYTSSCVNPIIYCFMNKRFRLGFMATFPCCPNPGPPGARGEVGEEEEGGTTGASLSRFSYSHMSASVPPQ


How the values were obtained:
[1] = target: T1, CCK1R; assay: IP-One accumulation TR-FRET assay, PAM format, HEK-293 CCK1R cells; assay type: cell-based; design: expressed in transfected cells; host or cells: HEK-293; details: for Emax: HEK293, relative to CCK control; for Emax / CCK1R PAM (IP-One) Score (activity score = normalized Emax × pEC50) / EC50: HEK-293 CCK1R cells; for Emax / CCK1R PAM (IP-One) Score (activity score = normalized Emax × pEC50): PAM format; for Emax / EC50: average ± SD; for EC50: PAM format with EC20 CCK
How it was run: (§1)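 HEK-293 cells overexpressing CCK1R were plated overnight, then given compounds (top 50 µM, 16-point 2-fold) for 30 min at 37 °C. CCK stimulator with 50 mM LiCl (PAM format) or DMSO (agonist format) followed for 1 h. IP-One was read by TR-FRET; activity score = CCK-normalized Emax × pEC50.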

[2] = target: T3, vasopressin-2 receptor (AVP2R) (Homo sapiens, UniProt P30518); assay: AVP2R cAMP HTRF accumulation assay; assay type: cell-based; details: for AVP2R PAM (cAMP) Score (activity score = normalized Emax × pEC50) / EC50 / Emax: CHO-K1 AVP2R cells; for EC50 / Emax: PAM format with vasopressin, original hits: agonist and PAM data combined, average ± SD
T3 construct: expressed in transfected cells; host or cells: CHO-K1 (PAM format); HEK-293 (agonist format)
How it was run: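 Readout is HTRF cAMP detection (30 min, room temperature) following 30 min compound exposure with vasopressin stimulation, using HEK-293 cells for agonist mode and CHO-K1 cells for PAM mode, both overexpressing AVP2R, in IBMX-containing HBSS/HEPES buffer. Curves: 16 points, 2-fold steps, duplicate, ≥2 experiments.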

[3] = target: T1, CCK1R; assay: IP-One accumulation TR-FRET assay, agonist format, HEK-293 CCK1R cells; assay type: cell-based; design: expressed in transfected cells; host or cells: HEK-293; details: for Emax: HEK293, relative to CCK control, read-out: CCK1R Ago (IP-One) Emax
How it was run: as §1

[4] = target: T1, CCK1R; assay: Intracellular calcium assay (Fura-8-AM) in CHO-CCK1R cells; assay type: cell-based; design: expressed in transfected cells; details: CHO-CCK1R cells, agonist alone; mean ± SEM
Description: Biological activity was quantified in the CHO cell lines described above using intracellular calcium assays that were performed, as previously described, using Fura-8-AM (AAT Bioquest, Pleasonton, CA, USA). Full agonist dose–response curves were performed along with determination of maximal responses to 0.1 mM ATP, targeting an endogenous receptor present on the parental cells. Concentration–response curves of peak intracellular calcium responses were analyzed and plotted as percentages of maximal responses using non-linear regression analysis in Prism 9.1 (GraphPad).

[5] = target: T2, type 1 cholecystokinin receptor (CCK1R)

T3 sequence (P30518 whole entry): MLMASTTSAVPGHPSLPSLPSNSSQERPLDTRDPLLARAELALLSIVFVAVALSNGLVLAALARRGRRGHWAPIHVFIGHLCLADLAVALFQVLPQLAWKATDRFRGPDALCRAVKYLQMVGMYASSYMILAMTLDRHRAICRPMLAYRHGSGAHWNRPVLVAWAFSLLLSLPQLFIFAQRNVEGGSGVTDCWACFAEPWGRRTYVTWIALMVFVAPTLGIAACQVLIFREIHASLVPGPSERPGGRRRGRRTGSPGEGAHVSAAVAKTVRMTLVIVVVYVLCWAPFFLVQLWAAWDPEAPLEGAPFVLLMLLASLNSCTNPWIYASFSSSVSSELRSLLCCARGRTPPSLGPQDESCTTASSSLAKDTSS

Row | Emax [1] [%] | CCK1R PAM (IP-One) Score (activity score = normalized Emax × pEC50) [1] | EC50 [1] [µM] | AVP2R PAM (cAMP) Score (activity score = normalized Emax × pEC50) ([2]; PAM format) | EC50 [2] [µM] | Emax [2] [%] | CCK1R Ago (IP-One) Score (activity score = normalized Emax × pEC50) [3] | Emax ([3]; average ± SD) [%] | EC50 ([3]; average ± SD, read-out: CCK1R Ago (IP-One) EC50) [µM] | pEC50 agonist-induced intracellular calcium response [4] | pEC50 of intracellular calcium response (Fura-8-AM), CHO-CCK1R cells [5] | pEC50 of intracellular calcium response (Fura-8-AM), CHO-CCK1R cells, with 10 µM hit 1 [5] | pEC50 of intracellular calcium response (Fura-8-AM), CHO-CCK1R cells, with 10 µM hit 6 [5] | CCK1R IP-One activity (in words) ([1]; PAM and agonist formats) | Molecule | AVP2R cAMP response (in words) ([2]; PAM format)
1 | 44 ± 10 | 2.17 | 8.9 ± 1.7 | 3.0 and 2.97 | 4.7 ± 4.1 | 56 ± 33 | 0.72 | 17 ± 5 | 29.7 ± 8 |  |  |  |  |  | CN(C)CCNc1ncnc2c1sc1nc(-c3ccccc3)c3c(c12)CCCC3 [CMP-14] | 
2 | 43 ± 3 | 2.04 | 17.8 ± 6.2 | 2.97 | 7.3 ± 3.3 | 58 ± 15 | 0 |  |  |  |  |  |  |  | CC(C)Cc1nc2oc3c(N4CCNCC4)ncnc3c2c2c1CCCC2 [CMP-15] | 
3 | 34 ± 13 | 1.50 | 29 ± 13.1 | 2.13 | 7.8 ± 4 | 42 ± 17 | 0 |  |  |  |  |  |  |  | CC(C)Cc1nc2sc3c(NCCN4CCOCC4)ncnc3c2c2c1CCCC2 [CMP-34] | 
4 |  |  |  |  |  |  |  |  |  | 7.3 ± 0.2 |  |  |  |  | CCCC[C@H](NC(=O)[C@H](Cc1ccc(OS(=O)(=O)O)cc1)NC(=O)[C@H](CC(=O)O)NC(=O)CNC(=O)[C@H](N)Cc1ccc(O)cc1)C(=O)NCC(=O)N[C@@H](Cc1c[nH]c2ccccc12)C(=O)N[C@@H](CCCC)C(=O)N[C@@H](CC(=O)O)C(=O)OCCc1ccccc1 [CCK-OPE, D-Tyr-Gly-[(Nle^28,31)CCK-26-32]-phenethyl ester, reference compound] (H-[dY]GD[sY][Nle]GW[Nle]D-OCH2CH2Ph; N-terminus assumed) | 
5 |  |  |  |  |  |  |  |  |  |  | 7.3 | 8 | 8.1 |  | D-Tyr-Gly-[(Nle^28,31)CCK-26-32]-phenethyl ester (peptide) | 
6 | 0 | 0 |  | 0 |  | 0 | 0 | 0 |  |  |  |  |  | significantly diminished responses | CCN(CC)c1ncnc2c1sc1nc(N3CCOCC3)c3c(c12)CCCC3 [CMP-46] | 
7 | 0 | 0 |  | 4.78 | 10 ± 1.7 | 96 ± 5 | 0 | 0 |  |  |  |  |  |  | O=C(CSc1ncnc2c1sc1nc(N3CCOCC3)c3c(c12)CCCC3)NCc1ccco1 [CMP-65] | strong activation of AVP2R-mediated cAMP accumulation
8 |  |  |  |  |  |  |  |  |  |  | 9.6 | 10.7 | 10.7 |  | KAPSGRMSIVKNLQNLDPSHRISDRDYMGWMDF [CCK-33] | 
